Results as given in publication PMC8151276, “An Integrated Approach toward NanoBRET Tracers for Analysis of GPCR Ligand Engagement” (Molecules, 2021).

Target: T1, TACR1 (Homo sapiens, UniProt P25103)
T1 construct: purchased Promega (in-house HiBiT-GPCR construct library, NanoBRET)
Assay: NanoBRET screen HiBiT-TACR1 in HEK293
Format: binding
Procedure: Each tracer candidate was screened across the entire library of HiBiT-GPCR constructs using NanoBRET as the detection modality. As depicted in Figure 4A, the specificity of interactions was evaluated through decrease in BRET due to competitive displacement of a bound tracer by excess parental compound. Each tracer was analyzed for binding to each HiBiT-GPCR fusion in the absence and in the presence of competing parental compound. Briefly, HEK293 cells were transfected with HiBiT-GPCR constructs diluted into promoterless DNA to reduce expression and maximize translocation to the cell surface. Each tracer candidate was then screened at concentrations of 1 μM and 0.1 μM across cells expressing these fusions. Cells were treated for 1.5 h with tracer either alone or in the presence of 20 μM competing parental compound (i.e., control). BRET was measured upon addition of purified LgBiT and subsequent complementation with HiBiT genetically fused to a GPCR. The specificity of interactions was assessed through a decrease in BRET signal due to competitive displacement of the bound tracer. To further gauge the robustness of these interactions, the fold response over the control (i.e., BRETtracer/BRETcontrol) was calculated. We chose a 1.5-fold response, which translates to ≥7-fold signal over noise as the minimal threshold required to score an interaction as positive.
HiBiT-GPCR DNA constructs were diluted in 10 mM Tris pH 8 to a final concentration of 0.01 μg/μL, arrayed in 96-well plates and stored at −20 °C. For transfection, HEK293 cells were suspended in Opti-MEM (without phenol red) supplemented with 2% fetal bovine serum (Seradigm) and 100 units/mL penicillin–streptomycin (Gibco) at a final concentration of 220,000 cells/mL and dispensed into white 96-well plates at 90 μL/well. Subsequent transfections and screens were carried using an Agilent Bravo Automated Liquid Handling Platform. First, the 96-well HiBiT DNA arrays were diluted 25-fold in Opti-MEM (without serum or phenol red) to a final concentration of 0.0004 μg/μL and 20 μL of the diluted DNAs were transferred into new 96-well plates. Next, promoterless carrier DNA (1 μg/μL) was diluted 25-fold (0.04 μg/μL) and then dispensed into the diluted arrays at 20 μL/well. Following brief mixing, Viafect transfection reagent (Promega) diluted 16-fold into Opti-MEM was dispensed into the plates at 40 μL/well. After mixing by pipetting, plates were incubated for 10 min on the pipetting station deck. The DNA-transfection reagent complexes were then added to plates containing cells. To facilitate the screen, 10 μL of DNA-transfection reagent complexes were added in duplicates to the top 4 and bottom 4 rows, resulting in two identical 48-well arrays per plate. Plates with transfected cells were incubated for 18–20 h at 37 °C/5% CO2. A screen of each tracer across the entire library using two different concentrations requires duplicate plates of transfected cells. Depending on the number of tracers being screened, transfections can be scaled up using the same ratios. The next day, for each tracer, four 20× screening solutions in tracer dilution buffer (Promega) were prepared: two duplicates at final concentration of 20 μM and two duplicates at a final concentration of 2 μM. […] The four resulting solutions were diluted 4-fold in Opti-MEM without serum or phenol red to generate 5× solutions (5 µM and 0.5 µM tracer +/− 100 μM competing compound). To screen the library, a BioTek MultiFlo FX liquid dispenser was used to dispense 22.5 µL of tracer solution to the top 4 rows and 22.5 µL tracer + competing compound solution to the 4 bottom rows. Plates were briefly mixed on an orbital shaker and incubated for 1.5 h at room temperature. […] Plates were briefly mixed on an orbital shaker and incubated for 15 min to allow complementation.

T1 sequence (P25103 whole entry): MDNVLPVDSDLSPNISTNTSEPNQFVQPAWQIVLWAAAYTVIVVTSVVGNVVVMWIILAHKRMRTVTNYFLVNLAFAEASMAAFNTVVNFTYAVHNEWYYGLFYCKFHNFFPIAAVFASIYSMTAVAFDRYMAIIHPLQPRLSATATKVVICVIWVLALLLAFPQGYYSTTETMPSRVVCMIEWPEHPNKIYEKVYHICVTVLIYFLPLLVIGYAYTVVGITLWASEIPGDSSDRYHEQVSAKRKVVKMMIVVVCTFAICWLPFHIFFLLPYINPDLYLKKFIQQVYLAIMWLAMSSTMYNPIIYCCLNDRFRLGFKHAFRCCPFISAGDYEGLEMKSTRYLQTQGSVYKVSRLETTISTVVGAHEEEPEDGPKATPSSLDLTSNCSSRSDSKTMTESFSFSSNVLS

| SMILES | NanoBRET Fold Response (TACR1, tracer 0.1μM) | NanoBRET Fold Response (TACR1, tracer 1μM) | also measured |
| --- | --- | --- | --- |
| CCOC(=O)c1cc(C#N)c(N2CCC(C(=O)NS(=O)(=O)Cc3ccccc3/C=C/C(=O)NCCNC(=O)CCc3ccc4n3[B-](F)(F)[N+]3=C(c5ccc[nH]5)C=CC3=C4)CC2)nc1C [AZD1283-1-NB590] |  |  | NanoBRET Fold Response (TACR1, 0.1μM): 1.06; NanoBRET Fold Response (TACR1, 1μM): 1.09 |
| N#CN=C(NCCCOc1cccc(CN2CCCCC2)c1)NCCNC(=O)CCOCCOCCOCCOCCNC(=O)CCc1ccc2n1[B-](F)(F)[N+]1=C(c3ccc[nH]3)C=CC1=C2 [Aminopotentidine-2-NB590] | 1.01 | 1.02 |  |
| CN(C)CCC=C1c2ccccc2CCc2ccc(C(=O)NCCNC(=O)CCOCCOCCOCCOCCNC(=O)CCc3ccc4n3[B-](F)(F)[N+]3=C(c5ccc[nH]5)C=CC3=C4)cc21 [Amitriptyline-a-2-NB590] |  |  | NanoBRET Fold Response (tracer at 0.1μM): 1.17; NanoBRET Fold Response (tracer at 1μM): 1.18 |
| CN(C)CCC=C1c2ccccc2CCc2ccc(C(=O)NCCNC(=O)CCOCCOCCOCCOCCNC(=O)CCc3ccc4n3[B-](F)(F)[N+]3=C(c5ccc[nH]5)C=CC3=C4)cc21 [Amitriptyline-b-2-NB590] |  |  | NanoBRET Fold Response (tracer at 0.1μM, listed as amitriptyline-b-2-NB590): 1.45; NanoBRET Fold Response (tracer at 1μM, listed as amitriptyline-b-2-NB590): 1.07 |
| COc1ccc2c(n1)c(CCNC(C)=O)cn2CCNC(=O)CCc1ccc2n1[B-](F)(F)[N+]1=C(c3ccc[nH]3)C=CC1=C2 [Azamelatonin-1-NB590] |  |  | NanoBRET Fold Response (0.1μM tracer): 0.98; NanoBRET Fold Response (1μM tracer): 0.89 |
| COc1ccc2[nH]c(-c3ccc(CNC(=O)CCOCCOCCOCCOCCNC(=O)CCc4ccc5n4[B-](F)(F)[N+]4=C(c6ccc[nH]6)C=CC4=C5)cc3)c(CCNC(C)=O)c2n1 [AzomelatoninICO9-2-NB590] |  |  | NanoBRET Fold Response (0.1μM tracer): 1.08; NanoBRET Fold Response (1μM tracer): 0.85 |
| O=C(CCOCCOCCOCCOCCNC(=O)CCc1ccc2n1[B-](F)(F)[N+]1=C(c3ccc[nH]3)C=CC1=C2)NCCCN1CCN(C2=Nc3cc(Cl)ccc3Nc3ccccc32)CC1 [Clozapine-a-2-NB590] |  |  | NanoBRET Fold Response (TACR1, 0.1μM tracer): 1.15; NanoBRET Fold Response (TACR1, 1μM tracer): 1.01 |
| CN1CCN(C2=Nc3cc(Cl)ccc3Nc3ccc(CNC(=O)CCOCCOCCOCCOCCNC(=O)CCc4ccc5n4[B-](F)(F)[N+]4=C(c6ccc[nH]6)C=CC4=C5)cc32)CC1 [Clozapine-b-2-NB590] |  |  | NanoBRET Fold Response (TACR1, 0.1μM tracer): 1.06; NanoBRET Fold Response (TACR1, 1μM tracer): 1.08 |
| CN1CCN(C2=Nc3cc(Cl)ccc3N(CC(=O)NCCOCCOCCOCCOCCNC(=O)CCc3ccc4n3[B-](F)(F)[N+]3=C(c5ccc[nH]5)C=CC3=C4)c3ccccc32)CC1 [Clozapine-c-2-NB590] |  |  | NanoBRET Fold Response (TACR1, 0.1μM tracer): 0.99; NanoBRET Fold Response (TACR1, 1μM tracer): 0.96 |
| O=C(CCOCCOCCOCCOCCNC(=O)CCc1ccc2n1[B-](F)(F)[N+]1=C(c3ccc[nH]3)C=CC1=C2)NCCCN1CCN(C2=Nc3ccccc3Oc3ccc(Cl)cc32)CC1 [Loxapine-a-2-NB590] | 1.06 | 1.12 |  |
| COc1ccccc1N1CCN(CCCCN2C(=O)c3ccc(CNC(=O)CCOCCOCCOCCOCCNC(=O)CCc4ccc5n4[B-](F)(F)[N+]4=C(c6ccc[nH]6)C=CC4=C5)cc3C2=O)CC1 [NAN-190-2-NB590] | 0.98 |  |  |
| COc1ccccc1N1CCN(CCCCN2C(=O)c3ccc(CNC(=O)CCOCCNC(=O)c4ccc(CNC(=O)CCc5ccc6n5[B-](F)(F)[N+]5=C(c7ccc[nH]7)C=CC5=C6)cc4)cc3C2=O)CC1 [NAN-190-3-NB590] | 1.13 | 1.11 |  |
| O=C(CCc1ccc2n1[B-](F)(F)[N+]1=C(c3ccc[nH]3)C=CC1=C2)NCc1ccc(C(=O)NCCOCCC(=O)N[C@@H]2CC[C@@]3(O)[C@H]4Cc5ccc(O)c6c5[C@@]3(CCN4CC3CC3)[C@H]2O6)cc1 [Naltrexone-3-NB590] | 1.06 | 0.90 |  |
| Cc1cc2c(s1)Nc1ccccc1N=C2N1CCN(CCCNC(=O)CCOCCOCCOCCOCCNC(=O)CCc2ccc3n2[B-](F)(F)[N+]2=C(c4ccc[nH]4)C=CC2=C3)CC1 [Olanzapine-a-2-NB590] | 1.04 | 0.92 |  |
| O=C(CCc1ccc2n1[B-](F)(F)[N+]1=C(c3ccc[nH]3)C=CC1=C2)NCc1ccc(C(=O)NCCOCCOCCNCC(O)COc2cccc3ccccc23)cc1 (stereo not shown) [Propranolol-3-NB590] |  |  | NanoBRET Fold Response (TACR1, 0.1μM): 0.99; NanoBRET Fold Response (TACR1, 1μM): 1.00 |
| O=C(CCc1ccc2n1[B-](F)(F)[N+]1=C(c3ccc[nH]3)C=CC1=C2)NCCOCCOCCNC(=O)OCCOCCN1CCN(C2=Nc3ccccc3Sc3ccccc32)CC1 [Quetiapine-a-2-NB590] | 0.97 | 0.83 |  |
| Cc1nc2n(c(=O)c1CCN1CCC(c3noc4cc(F)ccc34)CC1)CCCC2OC(=O)NCCOCCOCCOCCOCCNC(=O)CCc1ccc2n1[B-](F)(F)[N+]1=C(c3ccc[nH]3)C=CC1=C2 (stereo not shown) [Risperidone-2-NB590] | 1.10 | 0.95 |  |
| CC(C)N(CC[C@H](c1ccccc1)c1cc(CCNC(=O)CCOCCOCCOCCOCCNC(=O)CCc2ccc3n2[B-](F)(F)[N+]2=C(c4ccc[nH]4)C=CC2=C3)ccc1O)C(C)C [Tolterodine-2-NB590] | 1.16 | 1.01 |  |
| CC(C)N(CC[C@H](c1ccccc1)c1cc(CCNC(=O)c2ccc(CNC(=O)CCc3ccc4n3[B-](F)(F)[N+]3=C(c5ccc[nH]5)C=CC3=C4)cc2)ccc1O)C(C)C [Tolterodine-BZ-NB590] | 0.93 | 1.01 |  |
